Experiments:
Assay in all cases: Checkerboard synergy study (FIC/FBC index)
Settings in all cases: in combination with P4075EC+EDTA
Acinetobacter strains = type: cell-based, Acinetobacter baumannii
Stenotrophomonas strains = type: cell-based, Stenotrophomonas maltophilia
Burkholderia strains = type: cell-based, Burkholderia cenocepacia
[1] = share of 10 Acinetobacter strains with synergy
[2] = share of 10 Stenotrophomonas strains with synergy
[3] = share of 10 Burkholderia strains with synergy

Structure (SMILES): NC[C@H]1O[C@H](O[C@H]2[C@H](O)[C@@H](O[C@H]3O[C@H](CO)[C@@H](O)[C@H](N)[C@H]3O)[C@H](N)C[C@@H]2N)[C@H](N)C[C@@H]1O [Tobra]
- FBC (Acinetobacter strains; isolate NB31): 1.50
- FIC (Acinetobacter strains; isolate NB31): 0.98
- Synergy (FBC) (Acinetobacter strains; isolate NB31): no
- Synergy (FIC) (Acinetobacter strains; isolate NB31): indifferent
- FBC (Acinetobacter strains; isolate NB32): 1.79
- FIC (Acinetobacter strains; isolate NB32): 0.88
- Synergy (FBC) (Acinetobacter strains; isolate NB32): no
- Synergy (FIC) (Acinetobacter strains; isolate NB32): indifferent
- FBC (Acinetobacter strains; isolate NB33): 1.75
- FIC (Acinetobacter strains; isolate NB33): 1.27
- Synergy (FBC) (Acinetobacter strains; isolate NB33): no
- Synergy (FIC) (Acinetobacter strains; isolate NB33): indifferent
- FBC (Acinetobacter strains; isolate NB34): 0.24
- FIC (Acinetobacter strains; isolate NB34): 0.41
- Synergy (FBC) (Acinetobacter strains; isolate NB34): yes
- Synergy (FIC) (Acinetobacter strains; isolate NB34): yes
- FBC (Acinetobacter strains; isolate NB35): 1.44
- FIC (Acinetobacter strains; isolate NB35): 1.21
- Synergy (FBC) (Acinetobacter strains; isolate NB35): no
- Synergy (FIC) (Acinetobacter strains; isolate NB35): indifferent
- FIC (Acinetobacter strains; isolate NB36): 3.30
- Synergy (FBC) (Acinetobacter strains; isolate NB36): no
- Synergy (FIC) (Acinetobacter strains; isolate NB36): indifferent
- FBC (Acinetobacter strains; isolate NB37): 1.72
- FIC (Acinetobacter strains; isolate NB37): 0.75
- Synergy (FBC) (Acinetobacter strains; isolate NB37): no
- Synergy (FIC) (Acinetobacter strains; isolate NB37): indifferent
- FIC (Acinetobacter strains; isolate NB38): 1.05
- Synergy (FBC) (Acinetobacter strains; isolate NB38): no
- Synergy (FIC) (Acinetobacter strains; isolate NB38): indifferent
- FBC (Acinetobacter strains; isolate NB39): 3.52
- FIC (Acinetobacter strains; isolate NB39): 3.30
- Synergy (FBC) (Acinetobacter strains; isolate NB39): no
- Synergy (FIC) (Acinetobacter strains; isolate NB39): indifferent
- FBC (Acinetobacter strains; isolate NB40): 3.01
- FIC (Acinetobacter strains; isolate NB40): 3.01
- Synergy (FBC) (Acinetobacter strains; isolate NB40): no
- Synergy (FIC) (Acinetobacter strains; isolate NB40): indifferent
- % FBC Synergy (Acinetobacter strains; [1]): 10%
- % FIC Synergy (Acinetobacter strains; [1]): 10%
- FIC (Stenotrophomonas strains; isolate NB42): 0.14
- Synergy (FBC) (Stenotrophomonas strains; isolate NB42): indifferent
- Synergy (FIC) (Stenotrophomonas strains; isolate NB42): yes
- FIC (Stenotrophomonas strains; isolate NB43): 1.40
- Synergy (FBC) (Stenotrophomonas strains; isolate NB43): indifferent
- Synergy (FIC) (Stenotrophomonas strains; isolate NB43): indifferent
- FIC (Stenotrophomonas strains; isolate NB44): 1.5
- Synergy (FBC) (Stenotrophomonas strains; isolate NB44): indifferent
- Synergy (FIC) (Stenotrophomonas strains; isolate NB44): indifferent
- FBC (Stenotrophomonas strains; isolate NB45): 1.50
- FIC (Stenotrophomonas strains; isolate NB45): 0.97
- Synergy (FBC) (Stenotrophomonas strains; isolate NB45): indifferent
- Synergy (FIC) (Stenotrophomonas strains; isolate NB45): indifferent
- % FBC Synergy (Stenotrophomonas strains; [2]): 0%
- % FIC Synergy (Stenotrophomonas strains; [2]): 20%
- FBC (Burkholderia strains; isolate NB21): 0.48
- FIC (Burkholderia strains; isolate NB21): 0.27
- Synergy (FBC) (Burkholderia strains; isolate NB21): yes
- Synergy (FIC) (Burkholderia strains; isolate NB21): yes
- FIC (Burkholderia strains; isolate NB22): 0.35
- Synergy (FBC) (Burkholderia strains; isolate NB22): indifferent
- Synergy (FIC) (Burkholderia strains; isolate NB22): yes
- Synergy (FBC) (Burkholderia strains; isolate NB23): indifferent
- Synergy (FIC) (Burkholderia strains; isolate NB23): indifferent
- Synergy (FBC) (Burkholderia strains; isolate NB24): indifferent
- Synergy (FIC) (Burkholderia strains; isolate NB24): indifferent
- FBC (Burkholderia strains; isolate NB25): 0.99
- Synergy (FBC) (Burkholderia strains; isolate NB25): indifferent
- Synergy (FIC) (Burkholderia strains; isolate NB25): indifferent
- FBC (Burkholderia strains; isolate NB26): 0.92
- FIC (Burkholderia strains; isolate NB26): 0.12
- Synergy (FBC) (Burkholderia strains; isolate NB26): indifferent
- Synergy (FIC) (Burkholderia strains; isolate NB26): yes
- Synergy (FBC) (Burkholderia strains; isolate NB27): indifferent
- Synergy (FIC) (Burkholderia strains; isolate NB27): indifferent
- FIC (Burkholderia strains; isolate NB28b): 0.54
- Synergy (FBC) (Burkholderia strains; isolate NB28b): indifferent
- Synergy (FIC) (Burkholderia strains; isolate NB28b): yes
- FBC (Burkholderia strains; isolate NB29): 0.07
- FIC (Burkholderia strains; isolate NB29): 0.32
- Synergy (FBC) (Burkholderia strains; isolate NB29): yes
- Synergy (FIC) (Burkholderia strains; isolate NB29): yes
- FBC (Burkholderia strains; isolate NB30): 0.54
- FIC (Burkholderia strains; isolate NB30): 0.27
- Synergy (FBC) (Burkholderia strains; isolate NB30): yes
- Synergy (FIC) (Burkholderia strains; isolate NB30): yes
- % FBC Synergy (Burkholderia strains; [3]): 30%
- % FIC Synergy (Burkholderia strains; [3]): 50%

Reference: patent publication US20160158179A1, “NANOEMULSION THERAPEUTIC COMPOSITIONS AND METHODS OF USING THE SAME” (THE REGENTS OF THE UNIVERSITY OF MICHIGAN, priority 2008, published 2016)
